Results taken from US4292317A, “1,4-Dihydro-quinoline-3-carboxylic acid derivatives, process for their preparation and compositions containing them” (Laboratorie Roger Bellon, priority 1977, dated 1981).
Converted amounts (≈) assume the structure as drawn. Read-outs that look alike come from different tables or passages of the source.

Legend:
Assay type in all cases: cell-based
[1] = tested on: Salm. typhi 0901; test: microbe, parasite or virus in culture; conditions: Salmonella enterica, 18 h; Table 2; Salm. typhi 0901 (Gram negative)
Protocol: (§1) After sterilisation at 120° C., the pH was 6.8.
(§2) The minimum inhibitory concentrations (M.I.C.) were determined by dilution of the test compounds in this mixture, the concentration ranging from 0.05 to 100 μg/cm^3 in a geometric progression with a factor of 2.
(§3) The inoculation of the dishes was carried out by means of a multiple inoculator with 10^-3 dilutions of 18 hour old broth cultures.
(§4) The dishes were placed in an oven at 37° C. and the readings were taken afer an incubation time of 18 hours. The M.I.C. was taken as the lowest concentration which inhibited a culture.

[2] = tested on: Bord. bronchis. 4.617; test: M.I.C. in vitro, nutrient agar dilution; conditions: 18 h; Table 2; Bord. bronchis. 4.617 (Gram negative); read-out: M.I.C.
Protocol: as §1, §2, §3, §4

[3] = tested on: B. subtilis; test: M.I.C. in vitro, nutrient agar dilution; conditions: Bacillus subtilis, 18 h; Table 2; B. subtilis (Gram positive); read-out: M.I.C.
Protocol: as §1, §2, §3, §4

[4] = tested on: Pr. morganii A.236; test: M.I.C. in vitro, nutrient agar dilution; conditions: Morganella morganii, 18 h; Table 2; Pr. morganii A.236 (Gram negative); read-out: M.I.C.
Protocol: as §1, §2, §3, §4

[5] = tested on: Staph. 209 P; test: M.I.C. in vitro, nutrient agar dilution; conditions: 18 h; Table 2; Staph. 209 P (Gram positive); read-out: M.I.C.
Protocol: as §1, §2, §3, §4

[6] = tested on: Staph. 9.144; test: M.I.C. in vitro, nutrient agar dilution; conditions: 18 h; Table 2; Staph. 9.144 (Gram positive); read-out: M.I.C.
Protocol: as §1, §2, §3, §4

[7] = tested on: S. enteritidis Danysz; test: M.I.C. in vitro, nutrient agar dilution; conditions: Salmonella enterica, 18 h; Table 2; S. enteritidis Danysz (Gram negative); read-out: M.I.C.
Protocol: as §1, §2, §3, §4

[8] = tested on: Pr. mirabilis Nig; test: M.I.C. in vitro, nutrient agar dilution; conditions: Proteus mirabilis, 18 h; Table 2; Pr. mirabilis Nig (Gram negative); read-out: M.I.C.
Protocol: as §1, §2, §3, §4

[9] = tested on: Ps. aeruginosa 72.345; test: M.I.C. in vitro, nutrient agar dilution; conditions: Pseudomonas aeruginosa, 18 h; Table 2; Ps. aeruginosa 72.345 (Gram negative); read-out: M.I.C.
Protocol: as §1, §2, §3, §4

[10] = tested on: Providentia 0223; test: M.I.C. in vitro, nutrient agar dilution; conditions: 18 h; Table 2; Providentia 0223 (Gram negative); read-out: M.I.C.
Protocol: as §1, §2, §3, §4

[11] = tested on: Strepto D.M. 19; test: M.I.C. in vitro, nutrient agar dilution; conditions: 18 h; Table 2; Strepto D.M. 19 (Gram positive); read-out: M.I.C.
Protocol: as §1, §2, §3, §4

[12] = tested on: Ps. aeruginosa A.22; test: M.I.C. in vitro, nutrient agar dilution; conditions: Pseudomonas aeruginosa, 18 h; Table 2; Ps. aeruginosa A.22 (Gram negative); read-out: M.I.C.
Protocol: as §1, §2, §3, §4

[13] = tested on: Serratia; test: M.I.C. in vitro, nutrient agar dilution; conditions: 18 h, Table 2, Berratia (Gram negative), read-out: M.I.C.
Protocol: as §1, §2, §3, §4

[14] = tested on: Klebs. pneum. 10.031; test: M.I.C. in vitro, nutrient agar dilution; conditions: 18 h; Table 2; Klebs. pneum. 10.031 (Gram negative); read-out: M.I.C.
Protocol: as §1, §2, §3, §4

[15] = tested on: Pr. vulgaris 12-53; test: M.I.C. in vitro, nutrient agar dilution; conditions: Proteus vulgaris, 1253, 18 h; Table 2; Pr. vulgaris 12-53 (Gram negative); read-out: M.I.C.
Protocol: as §1, §2, §3, §4

[16] = tested on: Sh. sonnei I.P.S.; test: M.I.C. in vitro, nutrient agar dilution; conditions: Shigella sonnei, 18 h
Protocol: as §1, §2, §3, §4

[17] = tested on: Esch. coli 95 I.S.M.; test: M.I.C. in vitro, nutrient agar dilution; conditions: Escherichia coli, 18 h; Table 2; Esch. coli 95 I.S.M. (Gram negative); read-out: M.I.C.
Protocol: as §1, §2, §3, §4

[18] = tested on: Arizona 6.211; test: M.I.C. in vitro, nutrient agar dilution; conditions: 18 h; Table 2; Arizona 6.211 (Gram negative); read-out: M.I.C.
Protocol: as §1, §2, §3, §4

[19] = tested on: Esch. coli 54.127 O.M.S.; test: M.I.C. in vitro, nutrient agar dilution; conditions: Escherichia coli, 18 h; Table 2; Esch. coli 54.127 O.M.S. (Gram negative); read-out: M.I.C.
Protocol: as §1, §2, §3, §4

[20] = tested on: Strepto A 561; test: M.I.C. in vitro, nutrient agar dilution; conditions: 18 h; Table 2; Strepto A 561 (Gram positive)
Protocol: as §1, §2, §3, §4

[21] = tested on: Esch. coli 111 B4; test: M.I.C. in vitro, nutrient agar dilution; conditions: Escherichia coli, 18 h; Table 2; Esch. coli 111 B4 (Gram negative)
Protocol: as §1, §2, §3, §4

[22] = tested on: S. oranienburg 1066; test: M.I.C. in vitro, nutrient agar dilution; conditions: Salmonella enterica, 18 h; Table 2; S. oranienburg 1066 (Gram negative); read-out: M.I.C.
Protocol: as §1, §2, §3, §4

[23] = Table 2, Sh. sonnei I.P.S. (Gram negative), read-out: M.I.C.

| Structure (SMILES) | MIC [1] | MIC [2] | MIC [3] | MIC [4] | MIC [5] | MIC [6] | MIC [7] | MIC [8] | MIC [9] | MIC [10] | MIC [11] | MIC [12] | MIC [13] | MIC [14] | MIC [15] | MIC [17] | MIC [18] | MIC [19] | MIC [20] | MIC [21] | further results |
| --- | --- | --- | --- | --- | --- | --- | --- | --- | --- | --- | --- | --- | --- | --- | --- | --- | --- | --- | --- | --- | --- |
| CCn1cc(C(=O)O)c(=O)c2cc(Cl)c(N3CCN(C)CC3)cc21 [Example 1, 6-Chloro-1-ethyl-7-(4-methylpiperazinyl)-4-oxo-1,4-dihydro-quinoline-3-carboxylic acid] | 0.4 to 1.6 µg/mL (≈ 1.14 to 4.57 µM) | 1.6 to 6.2 µg/mL (≈ 4.57 to 17.7 µM) | 0.2 to 0.4 µg/mL (≈ 0.572 to 1.14 µM) | 0.2 to 0.8 µg/mL (≈ 0.572 to 2.29 µM) | 0.4 µg/mL (≈ 1.14 µM) | 0.4 to 1.6 µg/mL (≈ 1.14 to 4.57 µM) | 0.4 to 1.6 µg/mL (≈ 1.14 to 4.57 µM) | 0.4 to 0.8 µg/mL (≈ 1.14 to 2.29 µM) | 3.1 to 6.2 µg/mL (≈ 8.86 to 17.7 µM) | 3.1 to 12.5 µg/mL (≈ 8.86 to 35.7 µM) | 1.6 to 3.1 µg/mL (≈ 4.57 to 8.86 µM) | 3.1 to 6.2 µg/mL (≈ 8.86 to 17.7 µM) | 1.6 to 3.1 µg/mL (≈ 4.57 to 8.86 µM) | 0.2 µg/mL (≈ 0.572 µM) | 0.4 to 1.6 µg/mL (≈ 1.14 to 4.57 µM) | 0.4 to 0.8 µg/mL (≈ 1.14 to 2.29 µM) | 0.2 to 0.8 µg/mL (≈ 0.572 to 2.29 µM) | 0.2 to 0.4 µg/mL (≈ 0.572 to 1.14 µM) | 12.5 to 50 µg/mL (≈ 35.7 to 143 µM) | 0.2 to 0.4 µg/mL (≈ 0.572 to 1.14 µM) | MIC [16]: 0.2 to 0.85 µg/mL (≈ 0.572 to 2.43 µM); MIC [22]: 12.5 to 25 µg/mL (≈ 35.7 to 71.5 µM) |
| CCn1cc(C(=O)O)c(=O)c2cc(Cl)c(N3CCNCC3)cc21 [Example 3, 6-Chloro-1-ethyl-4-oxo-7-piperazinyl-1,4-dihydro-quinoline-3-carboxylic acid] | 0.2 µg/mL (≈ 0.596 µM) | 0.2 to 12.5 µg/mL (≈ 0.596 to 37.2 µM) | 0.2 to 0.4 µg/mL (≈ 0.596 to 1.19 µM) | 0.2 µg/mL (≈ 0.596 µM) | 0.4 to 0.8 µg/mL (≈ 1.19 to 2.38 µM) | 0.4 µg/mL (≈ 1.19 µM) | 0.2 µg/mL (≈ 0.596 µM) | 0.2 µg/mL (≈ 0.596 µM) | 1.6 to 3.1 µg/mL (≈ 4.76 to 9.23 µM) | 1.6 to 3.1 µg/mL (≈ 4.76 to 9.23 µM) | 1.6 to 3.1 µg/mL (≈ 4.76 to 9.23 µM) | 1.6 to 3.1 µg/mL (≈ 4.76 to 9.23 µM) | 3.1 to 12.5 µg/mL (≈ 9.23 to 37.2 µM) | 0.2 µg/mL (≈ 0.596 µM) | 0.2 µg/mL (≈ 0.596 µM) | 0.2 µg/mL (≈ 0.596 µM) | 0.2 µg/mL (≈ 0.596 µM) | 0.2 µg/mL (≈ 0.596 µM) | 6.2 µg/mL (≈ 18.5 µM) | 0.2 µg/mL (≈ 0.596 µM) | MIC [16, 23]: 0.2 µg/mL (≈ 0.596 µM); MIC [22]: 6.2 to 12.5 µg/mL (≈ 18.5 to 37.2 µM) |
| CCn1cc(C(=O)O)c(=O)c2cc(Cl)c(N3CCN(CCO)CC3)cc21 [Example 4, 6-chloro-1-ethyl-7-[4-(β-hydroxyethyl)-piperazinyl]-4-oxo-1,4-dihydro-quinoline-3-carboxylic acid] | 3.1 µg/mL (≈ 8.16 µM) | 6.2 µg/mL (≈ 16.3 µM) | 6.2 µg/mL (≈ 16.3 µM) | 1.6 µg/mL (≈ 4.21 µM) | 0.4 µg/mL (≈ 1.05 µM) | 0.4 µg/mL (≈ 1.05 µM) | 3.1 µg/mL (≈ 8.16 µM) | 3.1 µg/mL (≈ 8.16 µM) | 12.5 µg/mL (≈ 32.9 µM) | 25 µg/mL (≈ 65.8 µM) | 6.2 µg/mL (≈ 16.3 µM) | 12.5 µg/mL (≈ 32.9 µM) | 25 µg/mL (≈ 65.8 µM) | 0.4 µg/mL (≈ 1.05 µM) | 1.6 µg/mL (≈ 4.21 µM) | 1.6 µg/mL (≈ 4.21 µM) | 1.6 µg/mL (≈ 4.21 µM) | 3.1 µg/mL (≈ 8.16 µM) | 6.2 µg/mL (≈ 16.3 µM) | 3.1 µg/mL (≈ 8.16 µM) | MIC [16, 23]: 0.8 µg/mL (≈ 2.11 µM); MIC [22]: 25 µg/mL (≈ 65.8 µM) |
